Data set [1] deals with T1, thrombin (Homo sapiens, UniProt P00734). To be noted: thrombin inhibitor, quoted; cited from earlier work.
For data set [2], the target named is T1, thrombin. The data set can be described thus: Thrombin inhibition and inhibition kinetics with chromogenic substrate Chromozym TH. The class given is biochemical.
Method: Tosyl-Gly-Pro-Arg-4 nitranilide acetate (Chromozym TH, Roche Applied Science) was employed to assay PPACK inhibition of thrombin and plasmin in accordance with previously described methods [31]. 100 μL of 12 nM thrombin was incubated for one minute at room temperature with selected amounts of PPACK or PPACK-nanoparticles or with an excess of bare nanoparticles. 500 μL (100 μM) of the thrombin substrate Tosyl-Gly-Pro-Arg-4 nitranilide acetate were added to terminate the PPACK-thrombin interaction. In accordance with previous work, thrombin activity against the substrate was measured via absorbance at 405 nm. The rate of change in absorbance at 405 nm was taken as representative of the amount of uninhibited thrombin available to cleave Chromozym TH.
In additional experiments, Chromozym TH was used to determine the kinetics of the PPACK-thrombin interaction. […] Thrombin activity was measured as above. Kinetics of inhibition were characterized in accordance with the work of Kettner and Shaw [26]. The assay yielded the apparent pseudo-first-order rate constant for thrombin inactivation (kapp). Modeling inhibition according to equation (1), an estimate of the second order constants (k2/Ki) for the PPACK-thrombin interaction and the PPACK nanoparticle-thrombin interaction were obtained via equation (2). To best obtain a pseudo-first-order reaction, thrombin dilution was maximized within the limits set by the sensitivity of the Chromozym TH assay.
The test system of data set [3] is C57BL/6 mice. Put plainly: Photochemical (rose bengal) injury, thrombotic occlusion of the carotid artery. To be noted: for time to occlusion of the carotid artery: i.v. bolus 10 min before rose bengal, heparin 0.125 mg/kg, PPACK 12.5 mg/kg, nanoparticles 1 mL/kg; for effect on occlusion time / thrombus formation (in words): photochemical injury, C57BL/6 mice. In kind it is in vivo, mouse. An excerpt: As described in previous work, 10-12 week old male C57BL/6 mice (weight 25-30 g) were subjected to photochemical injury of the carotid. After anesthetization with sodium pentobarbital, the mice were secured under a dissecting microscope for isolation of the right common carotid artery via midline cervical incision. An ultrasonic flow probe (model 0.5 VB Transonic Systems, Ithaca, N.Y.) was applied to the artery to measure flow for the duration of each experiment. A 1.5 mW 540 nm HeNe laser (Melles Griot, Carlsbad, Calif.) was focused on the artery at a distance of 6 cm. […] In additional control experiments (n=4), no treatment preceded injection of the rose bengal dye. Occlusion of the carotid artery was noted and experiments were terminated upon the stable (>5 minutes) maintenance of zero flow.

For data set [4], the target named is T1, thrombin. As to conditions: literature value; cited from earlier work.
A further data set concerns mice. To be noted: cited from earlier work.
For data set [5] the following is noted: in vivo; cited from earlier work.
Data set [6] can be described thus: Stability of the nanoparticle formulation (HPLC of unattached PPACK after storage). The class given is physicochemical. To be noted: PPACK particles: after dialysis and one week storage at four degrees. The protocol:
To functionalize particles containing 1,2-distearoyl-sn-glycero-3-phosphoethanolamine-N-[carboxy(polyethylene glycol)-2000] with PPACK, amine-carboxyl coupling was employed to conjugate the PPACK N-terminus to the bare carboxyl groups on the synthesized particles. After one hour mixing of 1 mL emulsion with 12.5 mg PPACK, EDCI 1-[3-(Dimethylamino)propyl]-3-ethylcarbodiimide methiodide (2 mg) was added for overnight coupling. Excess PPACK and EDCI were removed by dialysis (MWCO 3000-5000). Particle size was assessed before and after PPACK conjugation as described above. Extent of PPACK coupling was determined by reverse-phase HPLC quantification of uncoupled PPACK after centrifugation of nanoparticles with Cleanascite lipid adsorption reagent (Agilent Technologies). […] PPACK was detected via phenylalanine absorbance (258 nm). Zeta potential measurements, taking into consideration hydrodynamic diameter measurements, were used for further verification of PPACK coupling (Brookhaven Instruments).

Data set [7] relates to C57BL/6 mice. As to conditions: heparin 0.125 mg/kg, rose bengal model; cited from earlier work.

pKi: −log10 of the molar value. Entries after “also recorded” stand apart in the source; their conditions may differ.

As a reminder, the pKi is the negative decadic logarithm of the Ki, by convention in mol/L. `CN[C@H](Cc1ccccc1)C(=O)N1CCC[C@H]1C(=O)N[C@H](C=O)CCCN=C(N)N` [Efegatran]: the pKi at thrombin [1] was 8.92.
For `NC(N)=NCCC[C@H](NC(=O)[C@@H]1CCCN1C(=O)[C@H](N)Cc1ccccc1)C(=O)CCl` [PPACK, D-phenylalyl-L-prolyl-L-arginyl-chloromethyl ketone], the “effect on thrombin activity against Chromozym TH (in words)” value on thrombin [2] is reported as “no significant thrombin activity apparent beyond a ten-fold excess”. The “pseudo-first-order rate constant kapp” value on thrombin [2] (0.92 nM thrombin, 5 nM PPACK or 0.3 pM PPACK nanoparticles) is 1.824 min⁻¹. In addition, the “second order constant (k2/Ki), per PPACK” value at thrombin [2] (free PPACK or PPACK on the particles, 5 nM PPACK) was 6.08e+06 M⁻¹ s⁻¹. Moreover, the “decay constant of thrombin activity with inhibitor concentration” value on thrombin [2] (one-minute incubation, per PPACK concentration) was 0.026 nM⁻¹. Further, in the data set on C57BL/6 mice [3], the “time to occlusion of the carotid artery” value came to 71 ± 19 min and the “effect on occlusion time / thrombus formation (in words)” value was “allowed a steady approach to complete occlusion; also recorded: did not delay occlusion time”. The “second order constant found by Kettner and Shaw” value at thrombin [4] was 2e+07 M⁻¹ s⁻¹. In the data set on mice, the LD50 result was “greater than 50 mg/kg” and the long-term toxicity result was “no long-term toxicity”. In data set [5], the distribution half-life was 7 min and the “elimination (clearance) half-life” value was 2.9 min.
In the case of “Bivalirudin nanoparticles: Bivalirudin conjugated at the N-terminus to Carboxy-PEG functionalized perfluorocarbon nanoparticles”, in data set [6], the “stability of the nanoparticle formulation” value was “analogous coupling and stability characteristics”. The “effect on occlusion time / thrombus formation (in words)” value in the data set with C57BL/6 mice [3] was “Bivalirudin nanoparticles did”.
Take “Bivalirudin: short synthetic peptide, specific and reversible direct thrombin inhibitor”: in the data set with thrombin [2], the “effect on thrombin activity against Chromozym TH (in words)” value is recorded as “less active, but more specific than PPACK”. Besides, the “effect on occlusion time / thrombus formation (in words)” value with C57BL/6 mice [3] is “did not significantly extend occlusion time”.
As to Heparin, in the data set with C57BL/6 mice [3], the “time to occlusion of the carotid artery” value came to 102 ± 13 min and the “effect on occlusion time / thrombus formation (in words)” value is reported as “formation of a stable thrombus was noticeably delayed”. For the same compound, the “occlusion time in previous trials” value in the data set on C57BL/6 mice [7] was 97 ± 18 min.
